From ChEMBL document CHEMBL4049445
Calls of active or inactive are those of the source. No cut-off for these calls is given here.

System: Influenza A virus
Assay: Antiviral activity against Influenza A virus A/PR/8/34 expressing amantadine-resistant M2 proton channel S31N mutant infected in MDCK cells
Format: functional, cell-based
Conditions: A/Puerto Rico/8/1934(H1N1)

SMILES	Activity
C1CCC(C23CC4CC(CC(C4)C2)C3)NC1 (configuration not stated)	inactive
OC1(C2CCNCC2)C2CC3CC(C2)CC1C3 (configuration not stated)	inactive
OC1(CC2CCNCC2)C2CC3CC(C2)CC1C3 (configuration not stated)	inactive
C1CC(C2C3CC4CC(C3)CC2C4)CCN1 (configuration not stated)	inactive
C1CC(C23CC4CC(CC(C4)C2)C3)CCN1	inactive
N=C(N)N1CCC(CC2C3CC4CC(C3)CC2C4)CC1 (configuration not stated)	inactive
N=C(N)N1CCC(C23CC4CC(CC(C4)C2)C3)CC1	inactive
CCN1CCC(C2C3CC4CC(C3)CC2C4)CC1 (configuration not stated)	inactive
C(=C1C2CC3CC(C2)CC1C3)C1CCNCC1	inactive
C1CC(CC2C3CC4CC(C3)CC2C4)CCN1 (configuration not stated)	inactive
N=C(N)N1CCC(C=C2C3CC4CC(C3)CC2C4)CC1	inactive
CN1CCC(CC2C3CC4CC(C3)CC2C4)CC1 (configuration not stated)	inactive
